{"source": "patent US12128023B2", "about": "“Pharmaceutical composition containing B-lapachone as active ingredient for prevention or treatment of cholestatic liver disease” (CUROME BIOSCIENCES CO., LTD., priority 2020, dated 2024)", "key": {"[1]": {"system": "Poly I:C-induced cholestatic liver disease animal models", "test": "Treatment effect in Poly I:C-induced primary biliary cirrhosis (PBC) mouse animal models", "assay_type": "in vivo, C57BL/6 male mice", "method": "Of cholestatic liver diseases, primary biliary cirrhosis (PBC) may be introduced to a similar state by using a viral RNA mimic and the Toll-like receptor polyinosinic-polycytidylic acid (Poly I:C). After 8-week-old C57BL/6 male mice (Samtako, Korea) were divided into each group (=6), each experimental group excluding a normal group was intraperitoneally administered 5 mg/kg Poly I:C twice a week for 8 weeks. Thereafter, the mice were fed a diet with control (vehicle), β-lapachone 40 mg/kg, β-lapachone 80 mg/kg, and positive control ursodeoxycholic acid 100 mg/kg and obeticholic acid 30 mg/kg for 8 weeks. On the 16th week of treatment, the experiment was ended, and the mice were sacrificed and then the blood was collected from the heart."}, "macrophage line Raw264.7": {"system": "macrophage line Raw264.7", "test": "Inflammatory cytokine release in LPS and ATP treated macrophage line Raw264.7 (ELISA)", "assay_type": "cell-based", "conditions": "Raw264.7, LPS 100 ng/ml, ATP 2.5 mM, 0.2, 0.5, 1, 2 μM β-lapachone, 24 hours; supernatant ELISA", "method": "The macrophage line Raw264.7 (ATCC TIB-71, Manassas, VA, USA) was subcultured in DMEM supplemented with 10% FBS and 1% penicillin/streptomycin.\nFor inflammation induction, RAW264.7 cells were suspended in DMEM containing 2% FBS, inoculated in a 12-well plate to a cell number of 4×10^5/ml, and incubated in 5% CO2 incubator at 37° C. for 24 hours. With replacement with fresh media, the cells were treated with appropriate concentrations of a corresponding substance, LPS (100 ng/ml), and 0.2, 0.5, 1, and 2 μM β-lapachone, cultured for 24 hours, treated with ATP (2.5 mM), and then cultured for additional 30 minutes, and the supernatant was collected. The release of cytokines (IL-1β and TNF-α) of RaW264.7 macrophages was quantified using each cell-free supernatant-ELISA set (Invitrogen, Billerica, MA, USA) by Invitrogen according to the manufacture's instruction, and is shown in FIG. 14."}, "[2]": {"system": "DDC-induced cholestatic liver disease mice", "test": "Preventive effect in DDC-induced cholestatic liver disease mouse animal models (β-lapachone given 3 days before DDC)", "assay_type": "in vivo, C57BL/6 male mice", "method": "DDC-induced cholestatic liver disease mouse animal models were prepared according to the method of Elisa Pose et al. by using 8-week-old C57BL/6 male mice (Samtako, Korea). Briefly, cholestatic liver disease was induced by feeding a standard rodent diet supplemented with 0.1% (w/w) DDC for 7 or 14 days. The 12-hour light and dark cycle was maintained and animals were allowed to free access to water. The standard rodent diet included medium wheat, wheat, corn, and corn gluten flour, and soybean oil (14% protein). All animal related procedures were reviewed and approved by the Institutional Animal Care and Use Committee of Korea Research Institute of Bioscience and Biotechnology (KRIBB), KRIBB-AEC-20165). The tissue staining of the cholestatic liver disease animal models was measured through H&E staining (basic tissue staining), Sirius Red staining (collagen staining), and Masson's trichrome staining (collagen, cytoplasm, muscle fibers, etc.), and the tissue staining was measured by a skilled researcher. To investigate the preventive effect of β-Lapachone (BL) on cholestatic liver disease, the mice were fed a diet with 0 (DDC-vehicle), 40 mg/kg (DDC-BL40) and 80 mg/kg (DDC-BL80) 3 days before DDC treatment (total 17 days) and, after 3 days, were fed a diet with DDC (total 14 days). After 14 days of DDC treatment, the mice were sacrificed and the liver was harvested including the portal vein (PV) and bile ducts of the mice, and the surrounding lesions were confirmed by H&E, and are shown in FIG. 1. The liver harvested in Example 2.1 was investigated for tissues or connective tissues around cells through Sirius Red and Masson's trichrome staining, which are shown in FIG. 2A. The expression of the factors in the liver tissue obtained from the cholestatic liver disease mouse animal models of Example 2.1 was performed by a real-time polymerase chain reaction was performed according to the following procedure. Total RNA from liver samples was extracted using Tri-RNA Reagent (Favrogen BIOTECH CORP, Nong-Ke Rd, Taiwan) according to the procedure presented by Favrogen, and was reverse transcribed into cDNA by using PrimeScript™ RT reagent Kit with gDNA Eraser (TAKARA Korea Biomedical Inc, Seoul, 08506, Korea). Quantitative PCR was performed using TB Green™ Premix Ex Tag™ II (Tli RNaseH Plus), ROX plus (TAKARA Korea Biomedical Inc, Seoul, 08506, Korea) and QuantStudio 5 Real-Time PCR Instrument (Thermo Fisher Scientific, Waltham, MA, USA)."}, "[3]": {"conditions": "Poly I:C 5 mg/kg i.p. 8 weeks, then β-lapachone 40, 80 mg/kg in diet 8 weeks"}, "[4]": {"conditions": "liver mRNA, DDC-BL40 and DDC-BL80 vs DDC-vehicle"}}, "data": [{"smiles": "CC1(C)CCC2=C(O1)c1ccccc1C(=O)C2=O", "note": "[β-lapachone]", "values": [{"measurement": "ALP in the blood", "setting": "[1]; [3]", "result": "inhibited"}, {"measurement": "ALT in the blood", "setting": "[1]; [3]", "result": "inhibited"}, {"measurement": "AST in the blood", "setting": "[1]; [3]", "result": "inhibited"}, {"measurement": "effect on blood indexes (AST, ALT, ALP) compared with comparative substances", "setting": "[1]; vs ursodeoxycholic acid 100 mg/kg and obeticholic acid 30 mg/kg", "result": "excellent effect compared with the comparative substances ursodeoxycholic acid (UDCA) and obeticholic acid (OCA)"}, {"measurement": "expression level of IL-1β protein increased by LPS and ATP", "setting": "macrophage line Raw264.7", "result": "reduced depending on the concentration"}, {"measurement": "expression level of TNF-α protein increased by LPS and ATP", "setting": "macrophage line Raw264.7", "result": "reduced depending on the concentration"}, {"measurement": "lesions around the portal vein (PV) and bile ducts (H&E)", "setting": "[2]; DDC-BL40 and DDC-BL80 (40 and 80 mg/kg in diet, 17 days; DDC 14 days) compared with DDC-vehicle, concentration dependent", "result": "significant lesion reductions"}, {"measurement": "transcriptional level of Col1α1", "setting": "[2]; [4]", "result": "significantly reduced"}, {"measurement": "transcriptional level of Col4α1", "setting": "[2]; [4]", "result": "significantly reduced"}, {"measurement": "transcriptional level of TGF-β1", "setting": "[2]; [4]", "result": "significantly reduced"}, {"measurement": "transcriptional level of fibronectin", "setting": "[2]; [4]", "result": "significantly reduced"}, {"measurement": "transcriptional level of α-SMA", "setting": "[2]; [4]", "result": "significantly reduced"}, {"measurement": "formation of connective tissues (Sirius Red and Masson's trichrome staining)", "setting": "[2]; liver of DDC mice treated with β-lapachone 40 and 80 mg/kg vs DDC-vehicle", "result": "inhibited such fibrosis progression"}]}]}
